Source: ChEMBL document CHEMBL1909046, “DrugMatrix in vitro pharmacology data”

Legend:
[1] = DRUGMATRIX: Glutamate, AMPA radioligand binding (ligand: [3H] AMPA); type: cell membranes, Rattus norvegicus, Wistar, Cerebral cortex, Membrane; conditions: Not Active = under 50% inhibition at 10 µM
[2] = DRUGMATRIX: ATPase, Na+/K+ enzyme inhibition (substrate: ATP); type: tissue-based, Sus scrofa, Heart; conditions: Not Active = under 50% inhibition at 10 µM
Substance-P receptor = Substance-P receptor (Homo sapiens, UniProt P25103); type: cell membranes, CHO, Membrane; conditions: cho; further: in other assays of this panel Not Active means under 50% inhibition at 10 µM
Sequence of Substance-P receptor (P25103 whole entry): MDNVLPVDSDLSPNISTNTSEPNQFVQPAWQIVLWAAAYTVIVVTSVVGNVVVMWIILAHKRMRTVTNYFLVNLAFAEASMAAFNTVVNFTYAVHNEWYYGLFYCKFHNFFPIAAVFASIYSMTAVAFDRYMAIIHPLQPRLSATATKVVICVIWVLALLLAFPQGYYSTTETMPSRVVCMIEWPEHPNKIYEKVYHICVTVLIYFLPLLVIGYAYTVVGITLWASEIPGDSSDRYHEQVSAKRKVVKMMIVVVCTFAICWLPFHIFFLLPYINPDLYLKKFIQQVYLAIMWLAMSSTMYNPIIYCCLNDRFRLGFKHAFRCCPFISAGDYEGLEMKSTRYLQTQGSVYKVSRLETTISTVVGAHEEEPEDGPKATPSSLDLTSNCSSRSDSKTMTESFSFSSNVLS

[3] = DRUGMATRIX: GABAA, Flunitrazepam, Central radioligand binding (ligand: [3H] Flunitrazepam); type: cell membranes, Rattus norvegicus, Wistar, Brain, Membrane; conditions: Not Active = under 50% inhibition at 10 µM
[4] = DRUGMATRIX: Platelet-Derived Growth Factor (PDGF) radioligand binding (ligand: [125I] PDGF); type: cell-based; conditions: nih3t3; Not Active = under 50% inhibition at 10 µM
Carbonic anhydrase 2 = Carbonic anhydrase 2 (Homo sapiens, UniProt P00918); experiment: DRUGMATRIX: Carbonic Anhydrase II enzyme inhibition (substrate: 4-Nitrophenyl acetate (4-NPA)); type: tissue-based, Erythrocyte; conditions: erythrocyte; Not Active = under 50% inhibition at 10 µM
Adenosine receptor A3 = target: T1, Adenosine receptor A3 (Homo sapiens, UniProt P0DMS8); type: cell membranes, CHO-K1, Membrane; conditions: cho-k1;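 further: radioligand binding assay with AB-MECA serving as the labeled ligand; in other assays of this panel Not Active means under 50% inhibition at 10 µM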
T1 sequence (P0DMS8 whole entry): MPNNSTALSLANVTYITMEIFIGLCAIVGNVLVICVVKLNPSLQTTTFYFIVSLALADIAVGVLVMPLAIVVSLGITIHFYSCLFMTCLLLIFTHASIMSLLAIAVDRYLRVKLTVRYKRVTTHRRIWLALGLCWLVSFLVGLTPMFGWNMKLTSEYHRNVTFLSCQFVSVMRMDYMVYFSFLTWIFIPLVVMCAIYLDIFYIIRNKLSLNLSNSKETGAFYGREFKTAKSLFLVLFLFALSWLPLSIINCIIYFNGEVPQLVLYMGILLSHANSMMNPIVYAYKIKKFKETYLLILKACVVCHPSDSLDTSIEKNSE

Nc1nc2c(ncn2CCC(CO)CO)c(=O)[nH]1 [PENCICLOVIR]
Not Active: IC50 [1] | Ki [1] | IC50 [2] | Ki [2] | IC50 (Substance-P receptor) | IC50 [3] | Ki [3] | IC50 [4] | Ki [4] | IC50 (Carbonic anhydrase 2) | IC50 (Adenosine receptor A3)

C=C(C)C1(O)OC(=O)C=C1OC (configuration not stated) [PENICILLIC ACID]
Not Active: IC50 [1] | Ki [1] | IC50 [2] | Ki [2] | IC50 (Substance-P receptor) | IC50 [3] | Ki [3] | IC50 [4] | Ki [4] | IC50 (Carbonic anhydrase 2) | IC50 (Adenosine receptor A3)

CC1(C)S[C@@H]2[C@H](NC(=O)Cc3ccccc3)C(=O)N2[C@H]1C(=O)O [PENICILLIN G]
Not Active: IC50 [1] | Ki [1] | IC50 [2] | Ki [2] | IC50 (Substance-P receptor) | IC50 [3] | Ki [3] | IC50 [4] | Ki [4] | IC50 (Carbonic anhydrase 2) | IC50 (Adenosine receptor A3)

CCCN1C[C@H](CSC)C[C@@H]2c3cccc4[nH]cc(c34)C[C@H]21 [PERGOLIDE]
Not Active: IC50 [1] | Ki [1] | IC50 [2] | Ki [2] | IC50 (Substance-P receptor) | IC50 [3] | Ki [3] | IC50 [4] | Ki [4] | IC50 (Carbonic anhydrase 2) | IC50 (Adenosine receptor A3)

C1CCC(C(CC2CCCCN2)C2CCCCC2)CC1 (configuration not stated) [PERHEXILINE]
Not Active: IC50 [1] | Ki [1] | IC50 [2] | Ki [2] | IC50 (Substance-P receptor) | IC50 [3] | Ki [3] | IC50 [4] | Ki [4] | IC50 (Carbonic anhydrase 2) | IC50 (Adenosine receptor A3)

CCOc1ccc(NC(C)=O)cc1 [PHENACETIN]
Not Active: IC50 [1] | Ki [1] | IC50 [2] | Ki [2] | IC50 (Substance-P receptor) | IC50 [3] | Ki [3] | IC50 [4] | Ki [4] | IC50 (Carbonic anhydrase 2) | IC50 (Adenosine receptor A3)

Cc1ccc(N(CC2=NCCN2)c2cccc(O)c2)cc1 [PHENTOLAMINE]
Not Active: IC50 [1] | Ki [1] | IC50 [2] | Ki [2] | IC50 (Substance-P receptor) | IC50 [3] | Ki [3] | IC50 [4] | Ki [4] | IC50 (Carbonic anhydrase 2) | IC50 (Adenosine receptor A3)

CNNCc1ccc(C(=O)NC(C)C)cc1 [PROCARBAZINE]
Not Active: IC50 [1] | Ki [1] | IC50 [2] | Ki [2] | IC50 (Substance-P receptor) | IC50 [3] | Ki [3] | IC50 [4] | Ki [4] | IC50 (Carbonic anhydrase 2) | IC50 (Adenosine receptor A3)

CN(C)CCCN1c2ccccc2Sc2ccccc21 [PROMAZINE]
Not Active: IC50 [1] | Ki [1] | IC50 [2] | Ki [2] | IC50 (Substance-P receptor) | IC50 [3] | Ki [3] | IC50 [4] | Ki [4] | IC50 (Carbonic anhydrase 2) | IC50 (Adenosine receptor A3)

CC(O)CO (configuration not stated) [PROPYLENE GLYCOL]
Not Active: IC50 [1] | Ki [1] | IC50 [2] | Ki [2] | IC50 (Substance-P receptor) | IC50 [3] | Ki [3] | IC50 [4] | Ki [4] | IC50 (Carbonic anhydrase 2) | IC50 (Adenosine receptor A3)

CADMIUM ACETATE
Not Active: IC50 [1] | Ki [1] | IC50 [2] | Ki [2] | IC50 (Substance-P receptor) | Ki (Substance-P receptor) | IC50 [3] | Ki [3] | IC50 [4] | Ki [4] | IC50 (Carbonic anhydrase 2) | Ki (Carbonic anhydrase 2) | IC50 (Adenosine receptor A3) | Ki (Adenosine receptor A3)

LEAD (II) ACETATE
Not Active: IC50 [1] | Ki [1] | IC50 [2] | Ki [2] | IC50 (Substance-P receptor) | Ki (Substance-P receptor) | IC50 [3] | Ki [3] | IC50 [4] | Ki [4] | IC50 (Carbonic anhydrase 2) | Ki (Carbonic anhydrase 2) | IC50 (Adenosine receptor A3) | Ki (Adenosine receptor A3)

LIPOPOLYSACCHARIDE E. COLI O55:B5
Not Active: IC50 [1] | Ki [1] | IC50 [2] | Ki [2] | IC50 (Substance-P receptor) | Ki (Substance-P receptor) | IC50 [3] | Ki [3] | IC50 [4] | Ki [4] | IC50 (Carbonic anhydrase 2) | Ki (Carbonic anhydrase 2) | IC50 (Adenosine receptor A3) | Ki (Adenosine receptor A3)
